Measurements as given in patent US12303497B2, “Anti-androgens for the treatment of metastatic castration-sensitive prostate cancer” (priority 2019, dated 2025).

Tests used:
[1] = molecular target: T1, CYP2C8 (Homo sapiens, UniProt P10632); assay: Contribution of CYP2C8 in the metabolism of apalutamide; set-up: endogenous in cells; host or cells: human subjects, in vivo; details: estimated
T1 sequence (P10632 1-490): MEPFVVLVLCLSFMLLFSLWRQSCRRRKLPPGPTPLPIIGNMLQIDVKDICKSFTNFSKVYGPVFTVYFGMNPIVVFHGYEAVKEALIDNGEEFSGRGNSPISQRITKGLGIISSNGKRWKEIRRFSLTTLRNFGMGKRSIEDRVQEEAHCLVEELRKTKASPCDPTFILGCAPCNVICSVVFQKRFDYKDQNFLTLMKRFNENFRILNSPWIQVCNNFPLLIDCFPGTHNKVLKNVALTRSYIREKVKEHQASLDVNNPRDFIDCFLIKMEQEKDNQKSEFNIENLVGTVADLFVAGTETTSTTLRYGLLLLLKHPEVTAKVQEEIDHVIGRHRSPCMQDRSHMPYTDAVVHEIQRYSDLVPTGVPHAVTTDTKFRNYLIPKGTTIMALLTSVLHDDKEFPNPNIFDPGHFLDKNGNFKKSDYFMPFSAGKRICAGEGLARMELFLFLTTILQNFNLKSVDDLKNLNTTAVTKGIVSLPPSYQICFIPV
Text: Metabolism is the main route of elimination of apalutamide.

[2] = molecular target: organic cation transporter 2 (OCT2) (Homo sapiens, UniProt O15244); assay: In vitro transporter inhibition
Sequence of organic cation transporter 2 (OCT2) (O15244 whole entry): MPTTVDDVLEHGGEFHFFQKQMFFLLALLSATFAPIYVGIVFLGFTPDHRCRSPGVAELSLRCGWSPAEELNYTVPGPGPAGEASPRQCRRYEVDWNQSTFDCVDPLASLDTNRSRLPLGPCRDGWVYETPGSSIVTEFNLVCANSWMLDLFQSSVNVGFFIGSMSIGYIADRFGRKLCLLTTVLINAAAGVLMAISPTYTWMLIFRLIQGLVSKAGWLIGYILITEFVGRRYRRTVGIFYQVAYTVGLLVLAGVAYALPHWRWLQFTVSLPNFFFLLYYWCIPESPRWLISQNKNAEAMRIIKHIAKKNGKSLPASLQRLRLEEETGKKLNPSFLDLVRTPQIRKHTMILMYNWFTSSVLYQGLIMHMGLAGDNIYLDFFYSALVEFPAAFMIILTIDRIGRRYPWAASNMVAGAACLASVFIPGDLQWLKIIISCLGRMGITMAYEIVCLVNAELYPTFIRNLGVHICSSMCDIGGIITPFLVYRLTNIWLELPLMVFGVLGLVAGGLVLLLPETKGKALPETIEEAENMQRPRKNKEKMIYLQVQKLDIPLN

[3] = tested on: mouse xenograft models of prostate cancer; assay: Mouse xenograft models of prostate cancer; assay type: in vivo; details: decreased tumor cell proliferation and increased apoptosis
[4] = Leuprolide PK sub-study in mCSPC subjects receiving leuprolide acetate; assay type: in vivo, human
Text: Optional PK samples were/will be collected from at least 60 consenting subjects (in selected countries) who received or will receive leuprolide acetate as the GnRHa at the time of randomization. Samples were/will be collected on Day 1 of Cycles 1, 3, 4, 5, and 6 for analysis of leuprolide and testosterone concentrations.
Descriptive statistics of leuprolide PK data will be summarized by treatment groups (with apalutamide or placebo) and dose of leuprolide acetate. […] The percentage of subjects with testosterone levels <50 ng/dL will be summarized descriptively by treatment groups.

[5] = Clinical pharmacokinetics of apalutamide and N-desmethyl apalutamide
[6] = tested on: male rats; assay: Repeat-dose toxicity study in male rats (up to 26 weeks); assay type: in vivo, rat
[7] = molecular target: CYP2B6 (Homo sapiens, UniProt P20813); assay: In vitro CYP inhibition
Sequence of CYP2B6 (P20813 whole entry): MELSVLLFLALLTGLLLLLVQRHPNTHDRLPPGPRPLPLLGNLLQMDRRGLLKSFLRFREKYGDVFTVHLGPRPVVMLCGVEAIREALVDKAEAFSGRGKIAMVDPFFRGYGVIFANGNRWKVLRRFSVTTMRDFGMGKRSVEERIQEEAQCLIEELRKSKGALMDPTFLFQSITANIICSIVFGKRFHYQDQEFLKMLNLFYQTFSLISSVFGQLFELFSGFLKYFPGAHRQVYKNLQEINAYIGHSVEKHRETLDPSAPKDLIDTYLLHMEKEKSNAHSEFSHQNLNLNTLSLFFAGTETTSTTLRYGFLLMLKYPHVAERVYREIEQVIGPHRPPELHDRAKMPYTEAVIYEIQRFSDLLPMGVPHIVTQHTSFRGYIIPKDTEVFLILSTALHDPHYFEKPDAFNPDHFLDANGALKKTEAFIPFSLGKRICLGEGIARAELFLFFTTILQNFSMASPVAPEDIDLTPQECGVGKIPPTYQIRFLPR

[8] = Solubility in aqueous media; assay type: physicochemical; details: aqueous media over a wide range of pH values
Text: The chemical name is (4-[7-(6-Cyano-5-trifluoromethylpyridin-3-yl)-8-oxo-6-thioxo-5,7-diazaspiro[3.4]oct-5-yl]-2-fluoro-N-methylbenzamide). Apalutamide is a white to slightly yellow powder.

[9] = molecular target: OATP1B3 (Homo sapiens, UniProt Q9NPD5); assay: In vitro transporter substrate study
Sequence of OATP1B3 (Q9NPD5 whole entry): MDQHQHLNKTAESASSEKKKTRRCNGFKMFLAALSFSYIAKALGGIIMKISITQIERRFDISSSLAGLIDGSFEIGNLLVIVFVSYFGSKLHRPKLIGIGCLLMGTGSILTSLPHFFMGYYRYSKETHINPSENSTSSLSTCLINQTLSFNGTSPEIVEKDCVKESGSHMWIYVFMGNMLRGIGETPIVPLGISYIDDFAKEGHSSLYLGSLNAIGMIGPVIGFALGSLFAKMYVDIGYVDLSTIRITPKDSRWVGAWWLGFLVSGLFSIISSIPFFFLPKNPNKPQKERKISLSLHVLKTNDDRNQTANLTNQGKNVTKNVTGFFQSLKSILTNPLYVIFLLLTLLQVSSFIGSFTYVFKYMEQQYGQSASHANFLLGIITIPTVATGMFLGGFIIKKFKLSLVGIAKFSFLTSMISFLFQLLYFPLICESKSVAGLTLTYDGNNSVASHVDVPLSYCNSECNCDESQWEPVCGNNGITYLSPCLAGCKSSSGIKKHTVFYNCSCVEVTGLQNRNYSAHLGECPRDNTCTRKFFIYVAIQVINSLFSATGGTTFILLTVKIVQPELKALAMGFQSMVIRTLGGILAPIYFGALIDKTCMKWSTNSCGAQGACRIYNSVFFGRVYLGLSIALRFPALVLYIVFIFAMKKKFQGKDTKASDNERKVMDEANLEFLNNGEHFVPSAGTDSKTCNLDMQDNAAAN

[10] = Ionization under physiological pH; assay type: physicochemical; details: relevant physiological pH condition
[11] = tested on: rat; assay: In vivo rat Comet assay
[12] = molecular target: organic anion transporter 1 (Homo sapiens, UniProt Q4U2R8); assay: In vitro transporter inhibition
Sequence of organic anion transporter 1 (Q4U2R8 whole entry): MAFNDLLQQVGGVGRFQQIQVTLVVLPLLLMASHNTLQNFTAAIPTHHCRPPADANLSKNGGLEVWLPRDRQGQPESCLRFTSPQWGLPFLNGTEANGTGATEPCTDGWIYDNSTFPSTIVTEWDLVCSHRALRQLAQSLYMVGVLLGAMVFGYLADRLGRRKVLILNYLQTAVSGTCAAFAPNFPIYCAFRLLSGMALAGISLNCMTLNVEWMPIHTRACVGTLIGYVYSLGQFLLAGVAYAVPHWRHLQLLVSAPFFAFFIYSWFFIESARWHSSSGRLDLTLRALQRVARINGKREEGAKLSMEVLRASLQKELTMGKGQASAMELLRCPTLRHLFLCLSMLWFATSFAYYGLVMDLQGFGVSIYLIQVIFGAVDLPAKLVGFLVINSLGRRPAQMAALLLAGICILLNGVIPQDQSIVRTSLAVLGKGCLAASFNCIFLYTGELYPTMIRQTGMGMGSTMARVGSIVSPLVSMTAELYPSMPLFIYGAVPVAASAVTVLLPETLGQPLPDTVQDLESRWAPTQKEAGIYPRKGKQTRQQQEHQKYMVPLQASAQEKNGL

[13] = molecular target: CYP3A4 (Homo sapiens, UniProt P08684); assay: Co-administration with itraconazole (strong CYP3A4 inhibitor); assay type: in vivo; set-up: endogenous in cells; host or cells: human subjects, in vivo; details: ERLEADA 240 mg single dose with itraconazole
Sequence of CYP3A4 (P08684 whole entry): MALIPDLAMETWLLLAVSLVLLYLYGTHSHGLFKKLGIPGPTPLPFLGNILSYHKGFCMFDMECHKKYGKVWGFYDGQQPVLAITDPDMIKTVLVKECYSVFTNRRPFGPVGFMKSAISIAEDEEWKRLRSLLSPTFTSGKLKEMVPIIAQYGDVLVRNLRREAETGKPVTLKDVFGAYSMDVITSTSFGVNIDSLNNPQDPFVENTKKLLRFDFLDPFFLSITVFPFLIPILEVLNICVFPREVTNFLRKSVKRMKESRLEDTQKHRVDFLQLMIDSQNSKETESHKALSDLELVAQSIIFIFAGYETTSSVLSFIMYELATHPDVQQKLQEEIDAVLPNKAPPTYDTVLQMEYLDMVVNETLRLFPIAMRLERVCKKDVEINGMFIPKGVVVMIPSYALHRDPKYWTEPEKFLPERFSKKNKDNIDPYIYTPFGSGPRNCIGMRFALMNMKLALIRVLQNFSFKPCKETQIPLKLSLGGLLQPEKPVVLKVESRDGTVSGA

[14] = molecular target: T1, CYP2C8; assay: In vitro CYP inhibition
[15] = tested on: BCRP/OATP1B1; assay: Co-administration of ERLEADA with rosuvastatin (BCRP/OATP1B1 substrate); details: in vivo
[16] = Single oral administration of radiolabeled apalutamide (AUC share, excretion); assay type: in vivo
[17] = tested on: dogs; assay: Repeat-dose toxicity study in dogs (up to 39 weeks); assay type: in vivo, dog
[18] = molecular target: organic anion transporter 3 (OAT3) (Homo sapiens, UniProt Q8TCC7); assay: In vitro transporter inhibition
Sequence of organic anion transporter 3 (OAT3) (Q8TCC7 whole entry): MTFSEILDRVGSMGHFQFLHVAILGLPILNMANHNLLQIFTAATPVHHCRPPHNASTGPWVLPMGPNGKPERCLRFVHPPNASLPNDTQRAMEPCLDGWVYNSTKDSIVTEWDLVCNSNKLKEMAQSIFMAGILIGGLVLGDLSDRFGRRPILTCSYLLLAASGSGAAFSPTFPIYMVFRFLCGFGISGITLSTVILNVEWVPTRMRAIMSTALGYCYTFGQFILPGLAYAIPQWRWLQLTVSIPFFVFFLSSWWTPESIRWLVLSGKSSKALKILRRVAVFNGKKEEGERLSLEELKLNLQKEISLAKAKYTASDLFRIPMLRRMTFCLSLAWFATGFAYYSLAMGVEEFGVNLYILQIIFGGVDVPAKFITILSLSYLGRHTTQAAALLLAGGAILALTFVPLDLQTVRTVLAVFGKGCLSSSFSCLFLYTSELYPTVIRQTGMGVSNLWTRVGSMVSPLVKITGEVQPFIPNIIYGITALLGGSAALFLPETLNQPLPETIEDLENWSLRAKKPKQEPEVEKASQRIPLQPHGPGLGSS

[19] = up to 70 days after single oral radiolabeled dose

For `CNC(=O)c1ccc(N2C(=S)N(c3cnc(C#N)c(C(F)(F)F)c3)C(=O)C23CCC3)cc1F` [Apalutamide, 4-[7-(6-cyano-5-trifluoromethylpyridin-3-yl)-8-oxo-6-thioxo-5,7-diazaspiro[3.4]oct-5-yl]-2-fluoro-N-methylbenzamide], the “Contribution of CYP2C8 in the metabolism of apalutamide” value ([1]; at steady-state) was 40%, the “Contribution of CYP2C8 in the metabolism of apalutamide” value ([1]; following single dose) was 58% and the “Inhibition of OCT2” value [2] was “inhibit”. For the same molecule, the Effect on tumors [3] was “decreased tumor volume”, the “Effect on the steady-state exposure of leuprolide” value [4] was “no apparent effect” and the CL/F ([5]; after single dosing) was 1.3 L/h. The “Pharmacokinetics in specific populations” value ([5]; age 18-94 years, race, mild to moderate renal impairment, mild to moderate hepatic impairment) was “No clinically significant differences”, the CL/F ([5]; at steady-state after once-daily dosing) was 2.0 L/h and the “Mean apparent volume of distribution at steady-state” value ([5]; human, in vivo) was “approximately 276 L”. For the same molecule, the “Median time to achieve peak plasma concentration (tmax)” value ([5]; range: 1 to 5 hours) was 2 h, the Time to steady-state ([5]; recommended dosage (240 mg once daily)) was 4 weeks and the “AUC at steady-state, mean” value ([5]; recommended dosage, SD 32 (apalutamide), 23 (N-desmethyl apalutamide)) was 100 µg·h/mL. The “Dose dependence of Cmax and AUC” value ([5]; repeated once-daily dosing of 30 to 480 mg) was “increased proportionally”, the “Dose at which atrophy of prostate gland and seminal vesicles, aspermia/hypospermia, tubular degeneration and/or interstitial cell hyperplasia or hypertrophy were observed” value [6] was no less than 25 mg/kg/day and the CYP2B6 inhibition [7] was “moderate inhibitors”. For the same molecule, the Solubility [8] was “practically insoluble”, the “Substrate for OATP1B3” value [9] was “not” and the Ionization [10] was “not ionizable”. The Genotoxicity [11] was “not genotoxic”, the “Inhibition of organic anion transporter 1” value [12] was “do not inhibit” and the “Apalutamide AUC change” value [13] was “similar”. The “Apalutamide Cmax decrease” value [13] was 22%, the CYP2C8 inhibition [14] was “moderate inhibitors” and the “Induction of BCRP and OATP1B1, clinically” value [15] was “weak inducer”. For the same molecule, the “Share of the total AUC” value ([16]; single oral radiolabeled apalutamide 240 mg) was 45%, the “Dose recovered in feces” value [16, 19] was 24% and the “Dose recovered in feces as this compound” value [16, 19] was 1.5%. The “Dose recovered in urine” value [16, 19] was 65%, the “Dose recovered in urine as this compound” value [16, 19] was 1.2% and the “Dose at which atrophy of prostate gland and seminal vesicles, aspermia/hypospermia, tubular degeneration and/or interstitial cell hyperplasia or hypertrophy were observed” value [17] was no less than 2.5 mg/kg/day. The “Inhibition of OAT3” value [18] was “inhibit”.
